PMC12435270 (Proceedings of the National Academy of Sciences of the …, 2025)
Like-named read-outs stand apart in the source and are kept apart here.

What was measured:
[1] = target: T1, human creatine transporter (hCRT, SLC6A8) (Homo sapiens, UniProt P48029); assay: cryo-EM structure; assay type: binding
T1 sequence (P48029 1-635): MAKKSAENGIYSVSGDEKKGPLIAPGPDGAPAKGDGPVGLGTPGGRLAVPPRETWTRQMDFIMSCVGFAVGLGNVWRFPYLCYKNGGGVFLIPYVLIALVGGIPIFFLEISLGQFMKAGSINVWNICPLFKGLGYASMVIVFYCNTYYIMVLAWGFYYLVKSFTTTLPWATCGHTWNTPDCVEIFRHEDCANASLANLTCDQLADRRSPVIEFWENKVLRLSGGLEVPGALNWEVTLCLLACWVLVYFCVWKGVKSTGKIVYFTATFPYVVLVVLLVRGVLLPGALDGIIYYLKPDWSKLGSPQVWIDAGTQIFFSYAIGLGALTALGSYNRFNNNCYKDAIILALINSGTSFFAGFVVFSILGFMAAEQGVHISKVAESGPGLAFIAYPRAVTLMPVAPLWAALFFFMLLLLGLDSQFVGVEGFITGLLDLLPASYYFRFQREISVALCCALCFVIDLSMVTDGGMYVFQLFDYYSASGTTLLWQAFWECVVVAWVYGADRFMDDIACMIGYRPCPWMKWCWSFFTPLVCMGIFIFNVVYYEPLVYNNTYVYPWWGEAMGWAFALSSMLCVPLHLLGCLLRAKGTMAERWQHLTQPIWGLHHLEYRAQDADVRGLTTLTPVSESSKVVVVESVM

[2] = target: T1, human creatine transporter (hCRT, SLC6A8); assay: cryo-EM structure; assay type: binding; remark: listed apart in the source

| Kd [1] [µM] | Kd [2] [µM] | SMILES |
| --- | --- | --- |
| 3.39 | – | N=C(N)NCCC(=O)O [RGX202] |
| – | 3.2 | CN(CC(=O)O)C(=N)N [creatine] |
